Data: PMC9942557, “Bolaamphiphile Analogues of 12-bis-THA Cl2 Are Potent Antimicrobial Therapeutics with Distinct Mechanisms of Action against Bacterial, Mycobacterial, and Fungal Pathogens” (mSphere, 2022)

Columns and labels:
[1] = tested on: Acinetobacter baumannii AYE; test: Broth microdilution MIC; format: cell-based; details: Acinetobacter baumannii AYE
[2] = tested on: EMR Staphylococcus aureus 15 NCTC 13616; test: Broth microdilution MIC; format: cell-based; details: EMR Staphylococcus aureus 15 NCTC 13616
[3] = tested on: HeLa; test: In vitro toxicity for cell line; format: cell-based, human; details: average ± standard error from 3 independent repeats
Source text: (§1) TABLE 2 Toxicity of bolaamphiphiles for two cell lines^a | column: Toxicity (EC50 [μg/ml]) of: / 12-bis-THA Cl2; Toxicity (EC50 [μg/ml]) of: / Dequalinium; Toxicity (EC50 [μg/ml]) of: / Quino-bola; Toxicity (EC50 [μg/ml]) of: / Penta-bola; Toxicity (EC50 [μg/ml]) of: / Hepta-bola; Toxicity (EC50 [μg/ml]) of: / Octa-bola; Toxicity (EC50 [μg/ml]) of: / Octa-C10; Toxicity (EC50 [μg/ml]) of: / Octa-C8; Toxicity (EC50 [μg/ml]) of: / Octa-C6

[4] = tested on: HEK293; test: In vitro toxicity for cell line; format: cell-based, human; details: HEK293; average ± standard error from 3 independent repeats
Source text: as §1

[5] = tested on: Pseudomonas aeruginosa PAO1; test: Broth microdilution MIC; format: cell-based
[6] = tested on: Escherichia coli NCTC 12923; test: Broth microdilution MIC; format: cell-based
[7] = tested on: Acinetobacter baumannii ATCC 17978; test: Broth microdilution MIC; format: cell-based
[8] = tested on: C. albicans 3179; test: Broth microdilution MIC; format: cell-based, Candida albicans; details: C. albicans 3179
[9] = tested on: EMR Staphylococcus aureus 16 NCTC 13277; test: Broth microdilution MIC; format: cell-based; details: EMR Staphylococcus aureus 16 NCTC 13277
[10] = tested on: C. tropicalis 8760; test: Broth microdilution MIC; format: cell-based; details: C. tropicalis 8760
[11] = tested on: Escherichia coli ATCC 25922; test: Intrahemocoelic G. mellonella infection model; format: in vivo, Galleria mellonella; details: single 10-mg/kg dose 1 h after infection
Protocol: The antimicrobial activities of DQC, CM2, and its analogues Quino-bola, Penta-bola, Hepta-bola, and Octa-bola against Escherichia coli ATCC 25922 were tested in Galleria mellonella larvae. All assays were performed on two separate occasions using a group size of 10 larvae; the larvae were kept in separate petri dishes and in a static incubator at 37°C during the period of the experiment. A suspension of E. coli ATCC 25922 was prepared by transferring two colonies of E. coli ATCC 25922 from a fresh agar plate into PBS and adjusting the absorbance to a McFarland 0.5 standard. The number of CFU per milliliter of this suspension was determined and corresponded to 1 × 10^8 CFU/mL. Larvae were injected beneath the tegument with 10 μL of a 1 × 10^7-CFU/mL bacteria suspension, corresponding to 1 × 10^5 CFU per larva. A 50-μL Hamilton syringe with a G27 needle was used for the injection. […] Ten microliters of stock solution was injected into each larva 1 h after infection (10 mg/kg). Levofloxacin (LVX; 50 μg/mL = 2 mg/kg) and PBS were used as positive and negative controls, respectively. A noninfected PBS injection was included to control for the effects of injection. Survival was monitored over a period of 70 to 72 h. Changes in G. mellonella survival were analyzed by the log rank (Mantel-Cox) method and plotted as Kaplan-Meier survival curves using GraphPad Prism version 7.

[12] = tested on: pBR322 plasmid, wheat germ topoisomerase I; test: DNA unwinding assay; format: biochemical
Protocol: A DNA unwinding assay kit (Inspiralis Limited, Norwich, UK) consists of wheat germ topoisomerase I assay buffer (50 mM Tris HCl [pH 7.9], 1 mM EDTA, 1 mM dithiothreitol [DTT], 20% [vol/vol] glycerol, 50 mM NaCl) dilution buffer (50 mM Tris HCl [pH 7.9], 1 mM EDTA, 1 mM DTT, 50% [vol/vol] glycerol, 500 mM NaCl), wheat germ topoisomerase I (5 U/μL), supercoiled plasmid pBR322 (1 μg/μL), and relaxed plasmid pBR322 (1 μg/μL). For the experiments, 2× DNA loading buffer containing 40% (wt/vol) sucrose, 100 mM Tris-HCl (pH 8), 1 mM EDTA, and 0.5 mg/mL bromophenol blue was prepared. The enzyme was diluted 1/5 with dilution buffer before being used in the assay. For the assay, 3 mM stock solutions in methanol of the compounds to be tested were prepared. An appropriate number of 1.5-mL Eppendorf tubes were filled with 25 μL of a mix consisting of assay buffer (15 μL of buffer per sample), supercoiled or relaxed pBR322 (0.5 μg/assay), and ultrapure water. In the first two tubes, 1 μL of methanol was added to test the effect of the solvent on both the plasmid and the enzyme. Subsequently, 1 μL of the test compounds was added to the remaining tubes, and the tubes briefly vortexed and incubated at room temperature for 5 min. After that, 2 μL of dilution buffer was added in the first tube, whereas 2 μL of enzyme diluted solution was added to the remaining tubes. The tubes were gently vortexed and incubated for 30 min at 37°C in a water bath. After this time, the reaction was stopped by adding 20 μL of water and 50 μL of water-saturated butanol to each tube. The tubes were vortexed and centrifuged for 1 min at 14,800 rpm. The lower aqueous layer of each tube was removed and transferred to a new tube containing 30 μL of chloroform-isoamyl alcohol (24/1) and 50 μL of loading buffer. The tubes were briefly vortexed and centrifuged for 1 min. Twenty microliters of the upper layer of each tube was loaded onto a 1% (wt/vol) agarose gel, and the gel was run at 80 V for approximately 4 h in Tris-acetate-EDTA buffer (40 mM Tris acetate and 1 mM EDTA). Subsequently, the gel was stained with ethidium bromide (1 μg/mL) for 15 min, briefly destained (5 to 10 min) in water, and visualized with a Multi-Doc Imaging M-26X UVP transilluminator.

[13] = tested on: Klebsiella pneumoniae NCTC 13368; test: Broth microdilution MIC; format: cell-based
[14] = tested on: C. albicans 3281; test: Broth microdilution MIC; format: cell-based, Candida albicans; details: C. albicans 3281
[15] = tested on: C. parapsilosis 3209; test: Broth microdilution MIC; format: cell-based
[16] = tested on: P. aeruginosa PAO1; test: Checkerboard synergy assay; format: cell-based, Pseudomonas aeruginosa
[17] = tested on: VR Enterococcus faecalis NCTC 12201; test: Broth microdilution MIC; format: cell-based; details: VR Enterococcus faecalis NCTC 12201
[18] = tested on: Pseudomonas aeruginosa NCTC 13437; test: Broth microdilution MIC; format: cell-based
[19] = tested on: C. auris temp probe; test: Broth microdilution MIC; format: cell-based, Candida auris; details: C. auris temp probe
[20] = tested on: Klebsiella pneumoniae M6; test: Broth microdilution MIC; format: cell-based
[21] = tested on: C. krusei 3876; test: Broth microdilution MIC; format: cell-based
[22] = tested on: C. parapsilosis; test: Broth microdilution MIC; format: cell-based
[23] = tested on: C. glabrata 8018; test: Broth microdilution MIC; format: cell-based; details: C. glabrata 8018
[24] = tested on: VR Enterococcus faecium NCTC 12204; test: Broth microdilution MIC; format: cell-based; details: VR Enterococcus faecium NCTC 12204
[25] = tested on: VS Enterococcus faecalis NCTC 775; test: Broth microdilution MIC; format: cell-based
[26] = tested on: M. smegmatis mc^2 155; test: Broth microdilution MIC (Middlebrook 7H9); format: cell-based, Mycobacterium smegmatis
[27] = tested on: M. tuberculosis Bleupan; test: microbe, parasite or virus in culture; format: cell-based, Mycobacterium tuberculosis

Row | Compound | MIC [1] | MIC [2] | Toxicity (EC50) [3] | Toxicity (EC50) [4] | MIC [5] | MIC [6] | MIC [7] | MIC [8] | MIC [9] | MIC [10] | MIC [13] | MIC [14] | MIC [15] | MIC [17] | MIC [18] | MIC [19] | MIC [20] | MIC [21] | MIC [22] | MIC [23] | further results
1 | Nc1c2c([n+](CCCCCCCCCCCC[n+]3c4c(c(N)c5ccccc53)CCCCC4)c3ccccc13)CCCCC2 [Hepta-bola] | 16 µg/mL | 0.25 µg/mL | 4.5 ± 0.7 µg/mL | 3.5 ± 1.2 µg/mL | 32 µg/mL | 2 µg/mL | 16 µg/mL | 0.5 µg/mL | 0.25 µg/mL | 0.25 µg/mL | 32 µg/mL | 0.5 µg/mL | 1 µg/mL | 0.5 µg/mL | 32 µg/mL | 2 µg/mL | 16 µg/mL | 0.5 µg/mL | 2 µg/mL | 0.25 µg/mL | protection (survival over 72 h) [11]: significantly protective; DNA intercalation ([12]; relaxed pBR322 plasmid plus topoisomerase I (Fig. 2A)): to a slightly lesser extent, Hepta-bola are intercalators; relaxation of supercoiled plasmid through the action of topoisomerase I ([12]; supercoiled pBR322 plasmid, bolalipid present (Fig. 2B)): not observed; MIC alone Bolalipid [16]: 32 µg/mL; MIC [24]: 0.5 µg/mL; MIC [25]: 1 µg/mL
2 | Nc1c2c([n+](CCCCCCCC[n+]3c4c(c(N)c5ccccc53)CCCCCC4)c3ccccc13)CCCCCC2 [Octa-C8] | 32 µg/mL | 1 µg/mL | 27.3 ± 1.3 µg/mL | 12.9 ± 4.3 µg/mL | 32 µg/mL | 8 µg/mL | 32 µg/mL | 2 µg/mL | 1 µg/mL | 1 µg/mL | 32 µg/mL | 2 µg/mL | 4 µg/mL | 4 µg/mL | 32 µg/mL | 4 µg/mL | 32 µg/mL | 4 µg/mL | 8 µg/mL | 2 µg/mL | MIC [26]: 0.19 µg/mL; MIC [27]: 0.49 µg/mL; MIC [24]: 0.5 µg/mL; MIC [25]: 4 µg/mL
